According to EP4772510A2, “BENZAZEPINONE COMPOUND AND USE THEREOF” (HANGZHOU BIO-SINCERITY PHARMA-TECHCO., LTD., priority 2023, dated 2025):

Experiments:
[1] = tested on: U937 cells; assay: Inhibition of TNF-α-induced necroptosis of U937 cells (CCK-8 assay); assay type: cell-based, human; settings: Homo sapiens, U-937, TNF-α 20 ng/mL + BV6 2 µM + Z-VAD-FMK 20 µM, 18 h
Excerpt: Example 56: Inhibition of TNF-α-Induced Necroptosis of U937 Cells by Compounds
• 1. Experimental reagents: RPMI-1640 culture medium, fetal bovine serum, penicillin-streptomycin, TNF-α (MCE, HY-P7058), BV6 (MCE, HY-16701), Z-VAD-FMK (MCE, HY-16658B), and CCK-8 (Dalian Meilun Biotech Co., Ltd., MA0218). • 2. Experimental instruments: medical low-temperature freezer (Thermo Fisher scientific, 902-ULTS), electrically heated thermostatic water bath (Shanghai Bluepard Instruments Co., Ltd., CD-420), low-speed centrifuge (ANHUI USTC Zonkia Scientific Instruments Co., Ltd, SC-3616), carbon dioxide incubator (Shanghai Bluepard Instruments Co., Ltd., BPN-150CH(UV)), inverted microscope (Olympus, CKX53), multi-functional microplate reader (Thermo Tecan, SPARK), class-II biosafety cabinet (AIRTECH, BSC-1304IIA2), and desktop cell counter (Thermo Fisher Scientific, Countess II). • 3. Cell culturing: U937 cells (human histiocytic lymphoma cells) were cultured in an RPMI-1640 culture solution containing 10% fetal bovine serum and 1% penicillin-streptomycin solution in a 5% CO2 incubator at 37 °C and a saturated humidity. The cell culture flask was vertically placed in the incubator. A T25 culture flask was used as an example, the culture solution in the flask was 6-8 mL, and culture medium changes and cell passaging were performed 3-4 times a week. • 4. […] The culture medium was taken out from the freezer and transferred to the water bath for pre-heating. An appropriate amount of culture medium was then taken for use. • (2) The cell suspension was transferred to a 15 mL sterile centrifuge tube and centrifuged at 850 rpm for 4 min to collect U937 cells. • (3) The supernatant was carefully discarded, and an appropriate amount of culture medium was added. The mixture was gently pipetted using a pipette to homogenize the cells and thus prepare a single-cell suspension, and the cells were counted. • (4) The cells were diluted to 4 × 10^5/mL and seeded into a 96-well plate at 90 µL/well, such that the cell density in the 96-well plate was 3.6 × 10 ^4 cells/well. The cells were incubated in a 5% CO 2 incubator at 37 °C and a saturated humidity for 6 h, followed by the addition of compounds. • 4.2 Dilution and addition of compounds: • (1) TNF-α was dissolved in PBS to obtain a 100 µg/mL stock solution and aliquoted; Z-VAD-FMK was dissolved in DMSO to obtain a 10 mM stock solution and aliquoted; BV6 was dissolved in DMSO to obtain a 10 mM stock solution and aliquoted; GSK2982772 was dissolved in DMSO to obtain a 10 mM stock solution and aliquoted. One aliquot of each stock solution was stored at -20 °C for immediate use, while the remaining aliquots were stored at - 80 °C and used within their shelf life. • (2) RPMI-1640 culture medium containing TNF-α, BV6, and Z-VAD-FMK was prepared (5 µL/per well), such that the final concentrations of TNF-α, BV6, and Z-VAD-FMK were 20 ng/mL, 2 µM, and 20 µM, respectively. • (3) Each target compound was three-fold diluted with a culture medium to 8 concentration gradients, with each concentration set in duplicate (5 µL/well). The final concentrations of each target compound were 1000.00/333.33/111.11/37.04/12.35/4.12/1.37/0.46 nM. • (4) The 96-well plate containing 90 µL of cell suspension was taken out from an incubator, and a positive control group, test compound groups, and a DMSO (5‰) control group were set. 5 µL of RPMI-1640 culture solution containing TNF-α, BV6, and Z-VAD-FMK and 5 µL of culture solution containing the test compound were added to the positive control group and the test compound groups. After compound addition, the mixtures were cultured for 18 h, followed by the CCK-8 assay. • (5) The 96-well plate was taken out, and the CCK-8 reagent was carefully added at 10 µL/well. The mixtures were incubated at 37 °C for 2-4 h, and the absorbance value was measured at a wavelength of 450 nm. • 5. Evaluation of inhibitory activity of compounds on TNF-α-induced necroptosis of U937 [formula] […]

[2] = tested on: HT-29 cells; assay: Inhibition of TNF-α-induced necroptosis of HT-29 cells (SRB method); assay type: cell-based, human; settings: Homo sapiens, HT-29, TNF-α 20 ng/mL + BV6 2 µM + Z-VAD-FMK 20 µM, 18 h
Excerpt: Example 57: Inhibition of TNF-α-Induced Necroptosis of HT-29 Cells by Compounds
• 1. Experimental reagents: McCOY's 5A culture medium, fetal bovine serum, penicillin-streptomycin, trypsin, PBS, TNF-α (MCE, HY-P7058), BV6 (MCE, HY-16701), Z-VAD-FMK (MCE, HY-16658B), SRB kit (Shanghai BestBio Biotechnology Co., Ltd., BB-4208-500T). • 2. Experimental instruments: medical low-temperature freezer (Thermo Fisher scientific, 902-ULTS), electrically heated thermostatic water bath (Shanghai Bluepard Instruments Co., Ltd., CD-420), low-speed centrifuge (ANHUI USTC Zonkia Scientific Instruments Co., Ltd, SC-3616), carbon dioxide incubator (Shanghai Bluepard Instruments Co., Ltd., BPN-150CH(UV)), inverted microscope (Olympus, CKX53), multi-functional microplate reader (Thermo Tecan, SPARK), class-II biosafety cabinet (AIRTECH, BSC-1304IIA2), and desktop cell counter (Thermo Fisher Scientific, Countess II). • 3. Cell culturing: HT-29 cells (human colon cancer cells) were cultured in a McCOY's 5A culture solution containing 10% fetal bovine serum and 1% penicillin-streptomycin solution in a 5% CO 2 at 37 °C and a saturated humidity, and culture medium changes and cell passaging were performed 3-4 times a week. • 4. […] The culture medium, trypsin, etc., were taken out from the freezer and transferred to the water bath for pre-heating. An appropriate amount of these substances was then taken for use. • (2) The old culture medium in the flask was aspirated using a sterile pipette and discarded, and the cells were washed 3 times with PBS. 1 mL of trypsin (25 cm^2 cell culture flask) was added into the flask, and the flask was gently shaken to allow the trypsin to cover all the cell surfaces. Digestion was performed in an incubator at 37 °C. After 2 min of digestion, the flask was placed under a microscope for observation. […] The mixture was gently pipetted using a pipette to homogenize the cells and thus prepare a single-cell suspension, and the cells were counted. • (5) The cells were diluted to 3 × 10^5/mL and seeded into a 96-well plate at 100 µL/well, such that there were 3 × 10^4 cells per well in the 96-well plate. The cells were incubated in a 5% CO2 incubator at 37 °C and a saturated humidity for 24 h, followed by the addition of compounds. • 4.2 Dilution and addition of compounds: • (1) TNF-α was dissolved in PBS to obtain a 100 µg/mL stock solution and aliquoted; Z-VAD-FMK was dissolved in DMSO to obtain a 10 mM stock solution and aliquoted; BV6 was dissolved in DMSO to obtain a 10 mM stock solution and aliquoted; GSK2982772 was dissolved in DMSO to obtain a 10 mM stock solution and aliquoted. One aliquot of each stock solution was stored at -20 °C for immediate use, while the remaining aliquots were stored at - 80 °C and used within their shelf life. • (2) McCOY's 5A culture solution containing TNF-α, BV6, and Z-VAD-FMK was prepared. For the positive control group and the test compound groups, the McCOY's 5A culture solution was added at 90 µL/well, and 10 µL of the culture medium containing the test compound was also added, thus making the final concentrations of TNF-α, BV6, and Z-VAD-FMK be 20 ng/mL, 2 µM, and 20 µM, respectively. For the DMSO (5‰) control group, 90 µL of the McCOY's 5A complete culture solution was added, and then 10 µL of DMSO was added, thus making the final concentration 5‰. • (3) Each target compound was three-fold diluted with a culture medium to 8 concentration gradients, with each concentration set in duplicate (10 µL/well). The final concentrations of each target compound were 1000.00/333.33/111.11/37.04/12.35/4.12/1.37/0.46 nM. • (4) The 96-well plate cultured for 24 h was taken out from the incubator, and the culture medium in the 96-well plate was carefully aspirated and discarded. A positive control group, test compound groups, and a DMSO (5‰) control group were set, and 10 µL of the corresponding compound was added to each group. […]

Row | SMILES | EC50 [1] [nM] | EC50 [2] [nM]
1 | Cn1cc(C#Cc2cc3c4c(c2)CCN4C(=O)C(NC(=O)c2ncn(Cc4ccccc4F)n2)CC3)cn1 (stereo not shown) [III-7, 1-(2-fluorobenzyl)-N-(9-((1-methyl-1H-pyrazol-4-yl)ethynyl)-4-oxo-1,2,3,4,6,7-hexahydroazepino[3,2,1-hi]indol-3-yl)-1H-1,2,4-triazole-3-carboxamide] | < 5 | 10 to 100
2 | Cn1cc(C#Cc2cc3c4c(c2)CCN4C(=O)C(NC(=O)c2ncn(Cc4ccc(F)cc4)n2)CC3)cn1 (stereo not shown) [III-8, 1-(4-fluorobenzyl)-N-(9-((1-methyl-1H-pyrazol-4-yl)ethynyl)-4-oxo-1,2,3,4,6,7-hexahydroazepino[3,2,1-hi]indol-3-yl)-1H-1,2,4-triazole-3-carboxamide] | 5 to 10 | 10 to 100
3 | Cn1cc(C#Cc2cc3c4c(c2)CCN4C(=O)C(NC(=O)c2ncn(Cc4ccc(F)cc4F)n2)CC3)cn1 (stereo not shown) [III-9, 1-(2,4-difluorobenzyl)-N-(9-((1-methyl-1H-pyrazol-4-yl)ethynyl)-4-oxo-1,2,3,4,6,7-hexahydroazepino[3,2,1-hi]indol-3-yl)-1H-1,2,4-triazole-3-carboxamide] | < 5 | < 5
4 | Cn1cc(C#Cc2cc3c4c(c2)CCN4C(=O)C(NC(=O)c2ncn(Cc4cc(F)cc(F)c4)n2)CC3)cn1 (stereo not shown) [III-11, 1-(3,5-difluorobenzyl)-N-(9-((1-methyl-1H-pyrazol-4-yl)ethynyl)-4-oxo-1,2,3,4,6,7-hexahydroazepino[3,2,1-hi]indol-3-yl)-1H-1,2,4-triazole-3-carboxamide] | < 5 | < 5
5 | Cc1ccccc1Cn1cnc(C(=O)NC2CCc3cc(C#Cc4cnn(C)c4)cc4c3N(CC4)C2=O)n1 (stereo not shown) [III-13, N-(9-((1-methyl-1H-pyrazol-4-yl)ethynyl)-4-oxo-1,2,3,4,6,7-hexahydroazepino[3,2,1-hi]indol-3-yl)-1-(2-methylbenzyl)-1H-1,2,4-triazole-3-carboxamide] | < 5 | 5 to 10
6 | Cc1ccc(Cn2cnc(C(=O)NC3CCc4cc(C#Cc5cnn(C)c5)cc5c4N(CC5)C3=O)n2)cc1 (stereo not shown) [III-14, N-(9-((1-methyl-1H-pyrazol-4-yl)ethynyl)-4-oxo-1,2,3,4,6,7-hexahydroazepino[3,2,1-hi]indol-3-yl)-1-(4-methylbenzyl)-1H-1,2,4-triazole-3-carboxamide] | < 5 | 5 to 10
7 | O=C(NC1CCc2cc(C#CC3CCNCC3)cc3c2N(CC3)C1=O)c1ncn(Cc2c(F)cccc2F)n1 (stereo not shown) [III-15, 1-(2,6-difluorobenzyl)-N-(4-oxo-9-(piperidin-4-ylethynyl)-1,2,3,4,6,7-hexahydroazepino[3,2,1-hi]indol-3-yl)-1H-1,2,4-triazole-3-carboxamide] | < 5 | < 5
8 | CC(C)(C)OC(=O)N1CCC(C#Cc2cc3c4c(c2)CCN4C(=O)C(NC(=O)c2ncn(Cc4c(F)cccc4F)n2)CC3)CC1 (stereo not shown) [III-16, tert-butyl 4-((3-(1-(2,6-difluorobenzyl)-1H-1,2,4-triazole-3-carboxamido)-4-oxo-1,2,3,4,6,7-hexahydroazepino[3,2,1-hi]indol-9-yl)ethynyl)piperidine-1-carboxylate] | < 5 | 10 to 100
9 | O=C(NC1CCc2cc(C#Cc3cnn(C(F)F)c3)cc3c2N(CC3)C1=O)c1ncn(Cc2cc(F)cc(F)c2)n1 (stereo not shown) [III-18, 1-(3,5-difluorobenzyl)-N-(9-((1-(difluoromethyl)-1H-pyrazol-4-yl)ethynyl)-4-oxo-1,2,3,4,6,7-hexahydroazepino[3,2,1-hi]indol-3-yl)-1H-1,2,4-triazole-3-carboxamide] | 10 to 100 | 5 to 10
10 | O=C(NC1CCc2cc(C#Cc3cnn(C(F)F)c3)cc3c2N(CC3)C1=O)c1ncn(Cc2ccc(F)cc2F)n1 (stereo not shown) [III-20, 1-(2,4-difluorobenzyl)-N-(9-((1-(difluoromethyl)-1H-pyrazol-4-yl)ethynyl)-4-oxo-1,2,3,4,6,7-hexahydroazepino[3,2,1-hi]indol-3-yl)-1H-1,2,4-triazole-3-carboxamide] | 5 to 10 | 5 to 10
11 | Cc1ccccc1Cn1cnc(C(=O)NC2CCc3cc(C#Cc4cnn(C(F)F)c4)cc4c3N(CC4)C2=O)n1 (stereo not shown) [III-22, N-(9-((1-(difluoromethyl)-1H-pyrazol-4-yl)ethynyl)-4-oxo-1,2,3,4,6,7-hexahydroazepino[3,2,1-hi]indol-3-yl)-1-(2-methylbenzyl)-1H-1,2,4-triazole-3-carboxamide] | 10 to 100 | 5 to 10
